# Patent US20250383339A1, “DESIGN AND APPLICATION OF NOVEL LIGAND-INDUCED SPLIT-PROTEIN SYSTEMS” (ARIZONA BOARD OF REGENTS ON BEHALF OF THE UNIVERSITY OF …, priority 2022, published 2025)
# Entries after “also recorded” stand apart in the source; their conditions may differ.
# B1: N-Bcl-xL 1-112 split-firefly-luciferase fusion (α3-α4 split site) (other)
# chain: MEDAKNIKKGPAPFYPLEDGTAGEQLHKAMKRYALVPGTIAFTDAHIEVNITYAEYFEMSVRLAEAMKRYGLNTNHRIVVCSENSLQFFMPVLGALFIGVAVAPANDIYNERELLNSMNISQPTVVFVSKKGLQKILNVQKKLPIIQKIIIMDSKTDYQGFQSMYTFVTSHLPPGFNEYDFVPESFDRDKTIALIMNSSGSTGLPKGVALPHRTACVRFSHARDPIFGNQIIPDTAILSVVPFHHGFGMFTTLGYLICGFRVVLMYRFEEELFLRSLQDYKIQSALLVPTLFSFFAKSTLIDKYDLSNLHEIASGGAPLSKEVGEAVAKRFHLPGIRQGYGLTETTSAILITPEGDDKPGAVGKVVPFFEAKVVDLDTGKTLGVNQRGELCVRGPMIMSGYVNNPEATNALIDKDGCGRGGSGGGGSGGGGSVDGGSGGQLDIMSQSNRELVVDFLSYKLSQKGYSWSQFSDVEENRTEAPEGTESEMETPSAINGNPSWHLADSPAVNGATGHSSSLDAREVIPMAAVKQALREAGDEFELRYRRAFSDLTSQL
# notes: Expressed by transient transfection in HEK293T cells; also called N-Bcl-xL (aa 1-112)
# Experiments:
# Bcl-xL 209 R139A = target: T1, Bcl-xL 209 R139A (Homo sapiens, UniProt Q07817, R139A); assay: split-luciferase complementation assay of split Bcl-xL 209 R139A in HEK293T cells; format: cell-based; conditions: split-luciferase signal
# T1 construct: expressed in transfected cells; host or cells: HEK293T
# T1 sequence (Q07817 113-209 R139A, one chain of several): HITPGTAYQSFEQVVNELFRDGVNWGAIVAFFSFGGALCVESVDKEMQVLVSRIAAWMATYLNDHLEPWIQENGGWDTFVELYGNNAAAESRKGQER
# Excerpt: (§1) To design split Bcl-xL, a suitable readout was required to measure successful ligand-dependent reassembly. A split-luciferase complementation assay was used, which was originally identified by rapamycin-induced complementation of FKBP and FRB. The split protein constructs were designed such that split-firefly luciferase-dependent luminescence would only be generated upon dimerization of N-Bcl-xL and C-Bcl-xL fragments […] (FIG. 2A). The split-protein constructs were created for each of the Bcl-xL split sites (FIG. 2B) and tested by transient transfection into HEK293T cells with the addition of either a Bcl-xL ligand or DMSO.
# Low passage (≤25) cells were seeded onto T-75 (Fisher) flasks at 1E6 cells per mL and grown for 24 hours in complete media. […] Cells were transfected for ˜16 h, then were trypsinized and quantified. […] Cell lysis was clarified via centrifugation, and 50 μL of clarified lysate was plated per well on a white U-bottom luminescence plate. 80 μL of L-GLO was added to each well, and the plate was incubated at room temperature for 25-40 minutes before luminescence was read on a Centro XS3 LB960 (Berthold Technologies) microplate luminometer. Separately, clarified lysate was quantified using a Micro-BCA kit (Pierce), and luminescence was normalized to RLU per microgram of total protein using Microsoft Excel. […]
# [1] = test system: Bcl-xL WT and Bcl-xL R139A; assay: split-luciferase assay, Bcl-xL 209 R139A side-by-side with wild-type parent; format: cell-based, human; conditions: α3-α4 split site, 50 nM ligand, 5 ng of each FLuc construct (FIG. 3)
# Experimental: Low passage (≤25) cells were seeded onto T-75 (Fisher) flasks at 1E6 cells per mL and grown for 24 hours in complete media. Transient transfections were performed using PolyJet (SignaGen). 96-well culture plates were coated with 50 μL/well of 50 μg/mL solution of poly-D-lysine (MilliPore) and incubated at 4C overnight. Cells were transfected for ˜16 h, then were trypsinized and quantified. Cells were plated onto coated 96-well plates at 1E4 cells/well in DMEM supplemented with 0.5% v/v FBS. Treatment was dissolved in DMSO and added to a final DMSO concentration of 0.05% by volume. Cells were grown in treatment media for 24 h before being lysed with an in-house detergent-based buffer. Cell lysis was clarified via centrifugation, and 50 μL of clarified lysate was plated per well on a white U-bottom luminescence plate. 80 μL of L-GLO was added to each well, and the plate was incubated at room temperature for 25-40 minutes before luminescence was read on a Centro XS3 LB960 (Berthold Technologies) microplate luminometer. Separately, clarified lysate was quantified using a Micro-BCA kit (Pierce), and luminescence was normalized to RLU per microgram of total protein using Microsoft Excel. All data presented were plotted using Kaleidagraph (Synergy) 3.5.
# [2] = test system: split-Src controlled by split Bcl-xL; assay: anti-phosphotyrosine western blot of split-Src controlled by split Bcl-xL in HEK293T cells; format: cell-based, human; conditions: for global tyrosine phosphorylation: N-Bcl-xL 1-112 / C-Bcl-XL WT 113-209 split-Src, 10 µM ligand vs DMSO
# Experimental: The most ligand-responsive fragments, N-Bcl-xL 1-112 and C-Bcl-XL WT 113-209, were cloned into existing full-length split-Src constructs. N-Bcl-xL was attached via a 25-residue linker to the N-terminus of N-Src. C-Bcl-XL WT was attached via a 25-residue linker to C-Src Y530F (FIG. 4A). Each split-kinase system was tested in HEK293T cells via transient transfection and treated with either DMSO or 10 µM of Bcl-xL ligands A-1155463, ABT-263, or ABT-737. […] More importantly, this novel CID system can likely be used in combination with the three existing CID systems to generate additional layers of control in cells for controlling pathways with externally added small molecules. For example, a split kinase and a corresponding split phosphatase may be used in conjunction with a split target protein (e.g., as described herein) to examine any given phosphorylation pathway in a cell. In some embodiments, the split target protein may be either upstream or downstream of a phosphorylation cascade (e.g., the split kinase). The aforementioned system would allow precise signaling studies to be undertaken by titration of two or more ligands (e.g., small molecules; e.g., one ligand for each split protein in the system).
# Bcl-xL = Bcl-xL (Homo sapiens, UniProt Q07817); conditions: in the literature; cited from earlier work
# Bcl-xL, sequence (Q07817 whole entry): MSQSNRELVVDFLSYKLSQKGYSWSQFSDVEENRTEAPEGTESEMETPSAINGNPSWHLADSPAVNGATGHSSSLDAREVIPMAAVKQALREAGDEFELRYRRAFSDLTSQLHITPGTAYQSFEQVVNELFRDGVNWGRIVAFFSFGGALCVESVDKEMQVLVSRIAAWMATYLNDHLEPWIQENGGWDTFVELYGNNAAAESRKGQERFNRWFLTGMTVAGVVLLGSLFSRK
# [3] = test system: split-Src controlled by the ABI/PYL CID system; assay: anti-phosphotyrosine western blot of split-Src controlled by the ABI/PYL CID system; format: cell-based; conditions: for phosphorylation / kinase activity of ABI/PYL split-Src with CID alone: abscisic acid CID alone
# Experimental: It was hypothesized that there might be off-target kinase inhibition by ABT-263, which is not present in the other ligands tested. To interrogate this potential off-target kinase inhibition, an orthogonal split-Src construct design was employed with ABI and PYL domains and the CID, abscisic acid. The split-Src was tested as fragments without CID, fragments with CID, and fragments with CID plus ABT-263.
# [4] = target: T2, C-Bcl-XL WT 113-209 split-firefly-luciferase fusion (human, UniProt Q07817 113-209); assay: split-luciferase complementation in HEK293T cells, reassembly induced by ABT-263
# T2 construct: not shown: split firefly luciferase half (NFluc or CFluc) with any linker
# T2 sequence (Q07817 113-209): as the sequence (Q07817 113-209 R139A, one chain of several) above, with A27R counted along it
# Excerpt: Fold change is indicated as a measure of small-molecule dependence of the luminescence.
# as §1
molecule,measurement,setting,value
CN(C)CC#Cc1ccc(OCCCc2sc(N3CCc4cccc(C(=O)Nc5nc6ccccc6s5)c4C3)nc2C(=O)O)c(F)c1 [A-1155463],ligand-induced reassembly (induced dimerization) of Bcl-xL 209 R139A,Bcl-xL 209 R139A,did not induce significant reassembly
same,"split-luciferase signal, difference between Bcl-xL WT and R139A in ligand-induced reassembly",[1],preferential binding for wild-type C-Bcl-XL 113-209 over the R139A mutant
same,global tyrosine phosphorylation,[2],significant increases in global tyrosine phosphorylation
same,binding affinity to Bcl-xL,Bcl-xL,sub-nanomolar
CC1(C)CCC(c2ccc(Cl)cc2)=C(CN2CCN(c3ccc(C(=O)NS(=O)(=O)c4ccc(N[C@H](CCN5CCOCC5)CSc5ccccc5)c(S(=O)(=O)C(F)(F)F)c4)cc3)CC2)C1 [ABT-263],"split-luciferase signal, difference between Bcl-xL WT and R139A in ligand-induced reassembly",[1],respond similarly; also recorded: no significant difference
same,global tyrosine phosphorylation,[2],significant increases in global tyrosine phosphorylation
same,intensity of induced phosphorylation compared to A-1155463 and ABT-737,[2]; split-Src controlled by split Bcl-xL,lower intensity of induced phosphorylation
same,phosphorylation / kinase turn-on of ABI/PYL split-Src on addition of ABT-263 with abscisic acid,[3]; fragments with abscisic acid CID plus ABT-263,lesser amount of kinase turn-on; also recorded: phosphorylation is slightly decreased
CN(C)CC[C@H](CSc1ccccc1)Nc1ccc(S(=O)(=O)NC(=O)c2ccc(N3CCN(Cc4ccccc4-c4ccc(Cl)cc4)CC3)cc2)cc1[N+](=O)[O-] [ABT-737],global tyrosine phosphorylation,[2],significant increases in global tyrosine phosphorylation
CC1=CC(=O)CC(C)(C)[C@@]1(O)/C=C/C(C)=C\C(=O)O [abscisic acid],phosphorylation / kinase activity of ABI/PYL split-Src with CID alone,[3],strong phosphorylation
same,phosphorylation / kinase activity of ABI/PYL split-Src with CID alone,[3]; listed as ABA,turns the kinase activity on
B1,binding result,[4],binds
